Test results: patent publication US8563580B2, “Flavivirus inhibitors and methods for their use” (Georgetown University, priority 2008, dated 2013)

Tested on: WNV protease
Assay: High Throughput Screen (HTS) protease assay
Assay type: biochemical, West Nile virus (EG101 strain)
Conditions: 100 nl of 5 mg/ml compound in DMSO per 30.1 μl well; substrate Boc-Gly-Lys-Arg-AMC 50 μM; DMSO controls = 100% activity
Description: Procedures for expression and purification of WNV (EG101 strain) were similar to those described elsewhere by Mueller et al., Int. J. Biochem. Cell. Biol., 39: 606-14 (2007). Briefly, E. coli Top10 F′ cells (Invitrogen, Carlsbad, Calif.) were transformed with the protease expression plasmid. Cells were grown at 37° C. until the OD600 was ˜0.5. Cells were then induced with isopropyl-1-thio-β-D-galactopyranoside (American Bioanalytical, Natick, Mass.) (0.5 mM), and incubated for 4 h at 37° C. Cells were harvested by centrifugation (5000×g) for 15 min at 4° C., washed once with a buffer containing 50 mM Tris-HCl, pH 7.5, and 200 mM NaCl, centrifuged at 5000×g for 15 min at 4° C., and stored at -80° C. until used.
Proteases were purified by suspending bacterial pellets in 50 mM Hepes, pH 7.0, 500 mM NaCl, (buffer A) with 0.05 mg/ml lysozyme. Cells were incubated for 30 min on ice after addition of 10% stock solution of Triton X-100 (final concentration of 0.5%). Cells were disrupted by sonication for 2 min and the soluble fraction was collected after centrifugation (15,000×g) for 30 min at 4° C. The soluble fraction was incubated for 1 h at 4° C. with Talon resin (BD Bioscience, San Jose, Calif.) which was pre-equilibrated in buffer A. The affinity resin was centrifuged at (400×g) for 10 min at 4° C., washed three times with buffer A, and packed into a column. Washing of the column was continued with the buffer A containing 10 mM imidazole, followed by elution of the protease with buffer A containing 150 mM imidazole. The protease was concentrated and further purified by Sephadex G-75 gel filtration chromatography. The purified protease fractions were pooled and dialyzed against a buffer containing 50 mM Tris-HCl pH 7.5 and 300 mM NaCl (4×1 L). Aliquots (100 μl) were frozen at −80° C.
The protease assay (100 μl) described by Mueller et al., Int. J. Biochem. Cell. Biol. 39: 606-14 (2007) was adapted for a 384-well plate format (30.1 μl). Microtiter plates were loaded sequentially with 14 μl of the reaction buffer containing 200 mM Tris-HCl, pH 9.5, and 30% glycerol (TG buffer) using an automated Wellmate (Matrix, Hudson, N.H.) and 6 μl of WNV protease (0.05 μM) (as prepared above) in TG buffer containing 15 mM NaCl (3 mM final concentration). Plates were then centrifuged at 1000×g for 3 min at room temperature to mix samples and pool liquids at the bottom of the wells. Inhibitor compounds (100 nl of 5 mg/ml in dimethyl sulfoxide; DMSO) were added to each well in duplicate by a pin-transfer mechanism of a robotic delivery system. The final inhibitor concentrations in the assays varied due to different molecular weights of the compounds from the libraries that were screened. Plates were incubated at room temperature to allow for formation of protease/inhibitor complexes. The fluorogenic substrate, t-butyl-oxycarbonyl(Boc)-Gly-Lys-Arg-7-amino-4-methyl coumarin (AMC) (10 μl in TG buffer; 50 μM final concentration in the reaction mixture), was added using the Wellmate, and the plates were centrifuged for 3 min at 1000×g and incubated at room temperature for 15 min. Fluorescence was measured at excitation and emission wavelengths of 385 nm and 465 nm, respectively, on a Perkin-Elmer (Waltham, Mass.) spectrofluorometer. To validate the assay conditions, aprotinin (bovine pancreatic trypsin inhibitor, BPTI) was used as a positive control. Assay mixtures containing DMSO were used as negative controls. The average of fluorescence values in duplicate wells for a given compound was used to determine the percent activity by taking the values obtained with DMSO controls as 100%. Compounds 1-11, 18-32, and 37-101 above were identified. […] Compounds 12-17 are compounds related to those identified in the HTS screen that also show significant WNV protease inhibition, i.e., >95%.

| SMILES | % Inhibition (reduction in protease activity) [%] |
| --- | --- |
| Cc1nnc(NC(=O)CSc2cn(Cc3ccccc3)c3ccccc23)s1 [Compound 84] | 54 |
| O=C(Cn1cnc2ccccc2c1=O)Nc1ccc(Oc2ccccc2)cc1 [Compound 60] | 51 |
| Cc1cc(NC(c2cccc(Br)c2)c2ccc3cccnc3c2O)no1 (stereo not shown) [Compound 10] | 70 |
| CC(/C=C1\SC(=S)N(CCCC(=O)Nc2cccnc2)C1=O)=C\c1ccccc1 [Compound 23] | 72 |
| COC(=O)c1cc2oc3ccccc3c2n1CC(=O)NCc1ccco1 [Compound 67] | 61 |
| CC1=Nc2ccccc2N=C(NC(=O)CSc2nnnn2-c2ccccc2)C1c1ccccc1 (stereo not shown) [Compound 79] | 56 |
| C=CCOc1cccc(C(Nc2cccc(C)n2)c2ccc3cccnc3c2O)c1 (stereo not shown) [Compound 5] | 81 |
| COC(=O)c1ccc(C(Nc2ccccn2)c2ccc3ccc(C)nc3c2O)cc1 (stereo not shown) [Compound 3] | 84.5 |
| CCC(C(=O)Nc1c2c(nn1-c1ccc(F)cc1)CSC2)c1ccccc1 (stereo not shown) [Compound 76] | 57 |
| Cc1ccc(/N=C2\NC(=O)C(CC(=O)Nc3ccc(OC(F)(F)F)cc3)S2)cc1 (stereo not shown) [Compound 81] | 55 |
| O=C(CCCN1C(=O)/C(=C/C=C/c2ccccc2)SC1=S)Nc1cccc(O)c1 [Compound 28] | 63 |
| CCCCC(=O)NC(c1cccs1)c1cc(Cl)c2cccnc2c1O (stereo not shown) [Compound 7] | 76 |
| CN(C)c1ccc(C(Nc2nccs2)c2ccc3cccnc3c2O)cc1 (stereo not shown) [Compound 6] | 76 |
| COc1ccc(NC(=O)C(NC(=O)Cc2cccs2)c2ccccc2)cc1 (stereo not shown) [Compound 78] | 56 |
| CC(C)c1ccc(NC(=O)CSC(=O)c2ccccc2)cc1 [Compound 92] | 52 |
| CC(NC(=O)Cc1cccs1)C(c1cccs1)N1CCN(c2ccccc2)CC1 (stereo not shown) [Compound 66] | 62 |
| CCN1C(=O)/C(=C/c2ccc(NC(=O)c3ccccc3Br)cc2)SC1=S [Compound 18] | 83.5 |
| CC(/C=C1\SC(=S)N(CC(=O)Nc2ccccn2)C1=O)=C\c1ccccc1 [Compound 19] | 76.5 |
| CC1CCN(S(=O)(=O)c2ccc(NC(=O)/C=C/c3ccco3)cc2)CC1 [Compound 62] | 72 |
| O=C(NC(c1ccccc1Cl)c1ccc2cccnc2c1O)c1ccccc1 (stereo not shown) [Compound 2] | 85 |
| CCCCC1CCC(C(=O)Nc2c3c(nn2-c2ccccc2C)C[S+]([O-])C3)CC1 (stereo not shown) [Compound 96] | 51 |
| COc1ccc(OCC(=O)OCCN2C(=O)c3ccccc3C2=O)cc1 [Compound 39] | 57 |
| Cc1ccc(-c2noc(CCC(=O)NCC3CCN(Cc4cccc(C)c4)CC3)n2)cc1 [Compound 98] | 51 |
| N#CCC(=O)Nc1ccc(Oc2ccccc2)cc1 [Compound 97] | 51 |
| Oc1c(C(Nc2ccccn2)c2ccccc2)ccc2cccnc12 (stereo not shown) [Compound 8] | 75 |
| CC(C)(C)C1CCC(C(=O)OCC(=O)Nc2ccc(C(N)=O)cc2)CC1 (stereo not shown) [Compound 65] | 63 |
| CCOC(=O)C1C(=O)N(C(=O)c2ccc(OC)cc2)CC1c1ccccc1 (stereo not shown) [Compound 46] | 50 |
| CCc1ccccc1NC(=O)Cn1cccc1C1=NC(c2ccccc2)CO1 (stereo not shown) [Compound 100] | 50 |
